# Measured values published in patent US20200024246A1, “POGOSTONE DERIVATIVES AND METHODS OF USING THE SAME” (Hamyard Associates LLC, priority 2018, published 2020).
# “Also recorded” adds a separate entry of the source. Like-named read-outs stand apart in the source and are kept apart here.
# Tests used:
# [1] = tested on: adult female mosquitoes; experiment: whole plant or invertebrate; details: for LD50: read-out: 24-hour Mortality LD50 (μg/g mosquito); for ranking in knockdown and mortality screenings: words
# Method: The first group of DHAA-based derivatives that were tested included Formula A2, Formula B3, Formula C3, and Formula D3. A solution of 0.5% or 1.5% of each of these compounds was applied to the mosquitoes, as described above. […] Acetone was used as a control.
# [2] = tested on: house flies; experiment: Knockdown and mortality of DHAA-based derivatives on house flies; assay type: in vivo, house fly
# From the text: Accordingly, further derivatives with structures similar to Formula C3 were synthesized and tested for knockdown potential and mortality in house flies and mosquitoes using an experimental design similar to the one described above. These compounds include Formula C5, Formula C6, Formula C7, Formula C8, Formula C9, and Formula C10.
# [3] = tested on: 3-4 instar Aedes aegypti larvae; experiment: Mosquito larvicide bioassay; assay type: in vivo; details: for LC50: Aedes aegypti, 24 h
# Method: Mosquito larvicide bioassays were performed by introducing various concentrations of test compounds (pyrone derivatives and rotenone) into acetone at various concentrations. 200 uL of these solutions were added to individual cups containing 10, 3-4 instar Aedes aegypti larvae and 25 mL of DI water. 2 mg of Tetramin™ was provided to each cup as a food source. […] Ataxia was used as the indicator of larval mortality. At least 5 concentrations were used which caused between 10 and 90% mortality. LC50 values were calculated using a PROC PROBIT model in SAS 9.4.
# [4] = tested on: adult, female mosquitoes; experiment: Topical application on adult female mosquitoes (24-h mortality, 1-h knockdown); assay type: in vivo, mosquito; details: for ED50: read-out: KD50 (ug/g mosquito); for LD50: read-out: LD50 (ug/g mosquito); for insecticidal properties compared with natural pogostone, natural pyrethrins or terpenoids: words, refers to Table 1
# [5] = tested on: adult house flies; experiment: Topical application of pogostone derivatives with PBO or plant essential oil on house flies; assay type: in vivo, house fly
# Method: Combinations of select pogostone derivatives with select concentrations of PBO or plant essential oils was performed. […] Synergists were applied as a subsequent application directly after the application of pogostone derivatives. Concentrations of synergists (plant oils or PBO) were chosen that produced no mortality at 24 hours when applied alone.
# To assess the ability of PBO to increase the toxicity of a wide variety of pogostone derivatives, PBO and the pogostone derivatives were applied in combination to the pronotum of house flies.
# Finally, the potential of plant essential oils to synergize the effect of Formula 30 was assessed.
# [6] = tested on: house flies; experiment: Topical application on house flies; details: for LD50 (ug/g fly): House Fly Toxicity, topical
# [7] = tested on: adult house flies; experiment: House fly feeding assay (choice assay, FIG. 5); assay type: in vivo; details: 15% w/w in fly food, total mortality at 5 days
# From the text: Formulas 13, 17, 24, 26, 10, 27, and 29 and control (acetone and boric acid) were incorporated into 2 g of house fly food (1:1 dry milk and sucrose) at rate of 15%. Specifically, approximately 20-30 adult house flies ( ) were introduced into aquaria with a French square filled with de-ionized water. Cotton dental wicks were used to draw water up and present it to flies at the top of the French square. Compounds were introduced at a concentration of (15% w/w food) into 1:1 mixtures of evaporated milk powder and sucrose. MUSCALURE™, a potent house fly attractant/pheromone used in various house fly bait products, was also added to this mixture of bait and food at a concentration of 0.5% w/w food. Two grams of food mixed with compound was provided to house flies in each assay. Another 2 g of just fly food (no compound) was provided at the other end of the assay chamber to serve as untreated source of food. This was done to assess the ability of flies to feed on the treated food source (palatability). If acetone was used as the carrier throughout the experiment, the food was carefully stirred repeatedly to ensure evaporation so that no more acetone was present in the food. Total mortality was assessed at 5 days after introducing house flies into individual mason jars with food treated with different compounds.
# [8] = tested on: adult female Aedes aegypti; experiment: Topical combination of Formula 13 with synthetic insecticides (FIGS. 6-9); assay type: in vivo; details: for 24-hr percentage mortality: 0.2 μL acetone, Formula 13 500 μg/mL, dibrom 10 μg/mL, thiamethoxam 100 μg/mL, permethrin 2.5 μg/mL, alone or in combination
# Method: A low-dose concentration of Formula 13 (500 μg/mL) was applied in combination with chlorfenapyr (75 μg/mL), dibrom (10 μg/mL), thiamethoxam (100 μg/mL), and permethrin (2.5 μg/mL) to the pronotum of adult female Aedes aegypti in 0.2 μL of acetone. These concentrations were chosen as they produced little-to-no mortality at 24 hours after application. Knockdown (immobilization) was recorded at 1 hour after application and mortality was recorded at 24, 48, and 72 hours after initial application. These applications were run in parallel to a topical application of a combined mixture of 500 μg/mL Formula 13 and 75 μg/mL of chlorfenpayr to the pronotum of adult female mosquitoes. For this experiment, total of 25 mosquitoes were treated within each replicate, with a minimum of 3 replicates utilized for each treatment. Synergism was defined as the higher percentage mortality in the insecticidal combination of both Formula 13 and chlorfenapyr compared to each individual component applied by itself.
# [9] = tested on: adult flies; experiment: Contact toxicity on treated filter paper; assay type: in vivo; details: filter paper treated with 1 mL in acetone; 24 hours
# Method: Filter papers were treated with 1 mL of the disclosed compounds in acetone at varying concentrations, and the filter papers were placed in a dish. Ten adult flies were added to each dish and a sugar pad was added to each dish to ensure that any mortality could be attributed to the compound instead of starvation. Mortality was assessed at 24 hours.
# [10] = Mosquito Knockdown Properties (1 hour), topical application
# [11] = Mosquito Toxicity (24 hours), topical application to pronotum
# [12] = house flies, topical, derivative alone or in combination with PBO
compound,measurement,setting,value
CCOCC(=O)c1c(O)cc(C)oc1=O [Formula C8],Mosquito Knockdown at 0.5% concentration,[1],43%
same,Mosquito Mortality at 0.5% concentration,[1],73%
same,Mosquito Knockdown at 1.5% concentration,[1],80%
same,Mosquito Mortality at 1.5% concentration,[1],80%
same,1-hour Knockdown EC50 (μg/g mosquito),[1]; topical,661 μg/g mosquito
same,LD50,"[1]; topical, 24 h",256 mg/kg
same,ranking in knockdown and mortality screenings,[1],performed the best in the initial knockdown and mortality screenings
same,House Fly Knockdown at 0.5% concentration,[2],0%
same,House Fly Mortality at 0.5% concentration,[2],3%
same,House Fly Knockdown at 1.5% concentration,[2],2%
same,House Fly Mortality at 1.5% concentration,[2],13%
Cc1cc(O)c(C(=O)COCc2ccccc2)c(=O)o1 [Formula C7],Mosquito Knockdown at 0.5% concentration,[1],10%
same,Mosquito Mortality at 0.5% concentration,[1],23%
same,Mosquito Knockdown at 1.5% concentration,[1],20%
same,Mosquito Mortality at 1.5% concentration,[1],15%
same,House Fly Knockdown at 0.5% concentration,[2],2.5%
same,House Fly Mortality at 0.5% concentration,[2],13%
same,House Fly Knockdown at 1.5% concentration,[2],1%
same,House Fly Mortality at 1.5% concentration,[2],9%
"C=C(C)[C@H]1Cc2c(ccc3c2O[C@@H]2COc4cc(OC)c(OC)cc4[C@@H]2C3=O)O1 [Rotenone, reference compound]",LC50,[3],0.35 µg/mL
CC(C)C(=O)c1c(O)c2cc(F)ccc2oc1=O [Formula 30],ED50,[4]; [10],> 1500 mg/kg
same,LD50,[4]; [11],45.6 mg/kg
same,"insecticidal properties compared with natural pogostone, natural pyrethrins or terpenoids",[4],possessed better insecticidal properties than natural pogostone
same,toxicity of Formula 30 in combination with cedarwood (Texas type) oil (CWT),"[5]; 1% CWT, dose-response curves FIG. 11",significant increase in toxicity; also recorded: shifting the dose-response curve to the left
same,toxicity of Formula 30 in combination with PBO,"[5]; 1% PBO, dose-response curves FIG. 11",significant increase in toxicity; also recorded: shifting the dose-response curve to the left
same,LD50,[5]; [12],645 µg/g
same,LD50 (ug/g fly),[6],645 ug/g fly
same,toxicity to house flies,[6]; words,extremely effective at killing house flies
Cc1cc(O)c(C(=O)/C=C/C(C)C)c(=O)o1 [Formula 10],ED50,[4]; [10],> 1500 mg/kg
same,LD50,[4]; [11],> 1500 mg/kg
same,mortality compared with boric acid,[7],performed better than boric acid
CCOC(=O)/C(C(C)=O)=C(/O)c1ccccc1 [Formula 28],ED50,"[4]; topical, 1 h",> 1500 mg/kg
same,LD50,"[4]; topical, 24 h",> 1500 mg/kg
same,LC50,[3],9.16 µg/mL
same,larvicidal properties compared with natural pogostone or rotenone,[3]; words,possessed better larvicidal properties than natural pogostone
"CC1(C)C(C=C(Cl)Cl)C1C(=O)OCc1cccc(Oc2ccccc2)c1 (racemic) [Permethrin, 3-phenoxybenzyl (1RS)-cis,trans-3-(2,2-dichlorovinyl)-2,2-dimethylcyclopropanecarboxylate]",24-hr percentage mortality,[8],28%
COP(=O)(OC)OC(Br)C(Cl)(Cl)Br (centres unmarked) [Dibrom],24-hr percentage mortality,[8],11%
O=C(CCc1ccccc1)c1c(O)c2ccccc2oc1=O [Formula 24],ED50,"[4]; topical, 1 h",> 1500 mg/kg
same,LD50,"[4]; topical, 24 h",> 1500 mg/kg
same,mortality compared with boric acid,[7],performed similarly to boric acid
C=C(C)C(O)CC(=O)c1c(O)cc(C)oc1=O (centres unmarked) [Formula C19],pest or weed control at 0.5 %,"[1]; Culicidae, topical, 1 h, read-out: Knockdown at 0.5%",83%
same,pest or weed control at 1.5 %,"[1]; Culicidae, topical, 1 h, read-out: Knockdown at 1.5%",83%
same,mortality at 0.5 %,"[1]; Culicidae, topical, 24 h, read-out: Mortality at 0.5%",83%
same,mortality at 1.5 %,"[1]; Culicidae, topical, 24 h, read-out: Mortality at 1.5%",77%
same,ranking in knockdown and mortality screenings,[1],appear to be the most potent insecticidal compounds
same,"percent mortality, 0.10% Concentration",[9],0%
same,"percent mortality, 0.25% Concentration",[9],0%
same,"percent mortality, 0.50% Concentration",[9],0%
"CCOCn1c(-c2ccc(Cl)cc2)c(C#N)c(Br)c1C(F)(F)F [chlorfenapyr, 4-bromo-2-(4-chlorophenyl)-1-ethoxymethyl-5-trifluoromethylpyrrol-3-carbonitrile]",percentage mortality at 24 hour,"[8]; chlorfenapyr 75 ug/mL, Formula 13 500 ug/mL, alone or combined, words",very low mortality
O=C(c1c(O)c2ccccc2oc1=O)C(Cl)Cl [Formula 31],ED50,[4]; [10],> 1500 mg/kg
same,LD50,[4]; [11],> 1500 mg/kg
same,LD50 (μg/g),[5]; [12],">6,000 μg/g"
same,LD50 (ug/g fly),[6],">6,000 ug/g fly"
CC(C)C(=O)c1c(O)c2ccccc2oc1=O [Formula 19],ED50,"[4]; topical, 1 h",384 mg/kg
same,LD50,"[4]; topical, 24 h",24.7 mg/kg
same,"insecticidal properties compared with natural pogostone, natural pyrethrins or terpenoids",[4],possessed better insecticidal properties at least as well as natural pyrethrins
same,LD50,[5]; [12],1495 µg/g
same,1-hour Knockdown EC50 (μg/g mosquito),[1]; topical,384.5 μg/g mosquito
same,LD50,"[1]; topical, 24 h",25 mg/kg
same,LD50 (ug/g fly),[6],1495 ug/g fly
Cc1cc(O)c(C(=O)CSCC(=O)O)c(=O)o1 [Formula C6],Mosquito Knockdown at 0.5% concentration,[1],27%
same,Mosquito Mortality at 0.5% concentration,[1],43%
same,Mosquito Knockdown at 1.5% concentration,[1],18%
same,Mosquito Mortality at 1.5% concentration,[1],15%
same,House Fly Knockdown at 0.5% concentration,[2],2.5%
same,House Fly Mortality at 0.5% concentration,[2],10%
same,House Fly Knockdown at 1.5% concentration,[2],7%
same,House Fly Mortality at 1.5% concentration,[2],6%
"CN1COCN(Cc2cnc(Cl)s2)C1=N[N+](=O)[O-] [Thiamethoxam, 3-((2-chloro-5-thiazolyl)methyl)-5-methyl-4-nitroiminotetrahydro-1,3,5-oxadiazine]",24-hr percentage mortality,[8],25.6%
COCC(=O)c1c(O)cc(C)oc1=O [Formula C9],Mosquito Knockdown at 0.5% concentration,[1],37%
same,Mosquito Mortality at 0.5% concentration,[1],73%
same,Mosquito Knockdown at 1.5% concentration,[1],53%
same,Mosquito Mortality at 1.5% concentration,[1],70%
same,House Fly Knockdown at 0.5% concentration,[2],0%
same,House Fly Mortality at 0.5% concentration,[2],5%
same,House Fly Knockdown at 1.5% concentration,[2],1%
same,House Fly Mortality at 1.5% concentration,[2],6%
